Measurements taken from patent publication US10258291B2, “Systems and methods for evaluation of neuropathologies” (The Regents of the University of California, priority 2012, dated 2019).
Entries after “also recorded” stand apart in the source; their conditions may differ.

Columns and labels:
[1] = tested on: rhesus macaques (Macaca mulatta); assay: Mismatch negativity (MMN) ERP in macaque EEG, auditory oddball paradigm, under ketamine, saline and 5 h post-ketamine; type: in vivo
Text: (§1) In exemplary implementations of the disclosed technology to assess the efficacy of a treatment for a neuropsychiatric disorder, two adult male rhesus macaques (Macaca mulatta), e.g., 6 and 7 years old, were used. All procedures and animal care were approved by the Salk Institute Animal Care and Use Committee and carried out in accordance with the US National Institutes of Health Guide for the Care and Use of Laboratory Animals.
(§2) The exemplary stimuli presentation structure included a passive auditory intensity oddball paradigm to present different intensity tones to subjects sitting in an isolated, dimly lit room during the implementations. For example, the auditory stimuli included 100 ms (e.g., 10 ms rise/fall) pure sinusoidal tones (e.g., 1500 Hz) of either a low or a high intensity. Frequent (standard) and infrequent (deviant) stimuli were presented 80% and 20% of the time, respectively, as depicted in FIG. 4. The inter-stimulus interval was 700 ms. For example, twelve hundred standard and three hundred deviant stimuli were presented in each recording session. For example, both high-deviant (e.g., low-standard) and low-deviant (e.g., high-standard) conditions were used, e.g., to allow comparison of the responses to identical stimuli (e.g., low or high) in different contexts (e.g., standard or deviant).
(§3) For example, EEG scalp recordings were acquired with the Vision Recorder software using a BrainAmpMR system. An exemplary custom-designed 22-channel NHP EEG cap with AgCl electrodes was developed and used for the non-human primate subject data collection (e.g., PCB Ribbon Cable for BrainCap-MR with 5 k resistors; BrainCap MR Box 1.2; sintered ring electrodes with 1.5 mm touchproof safety socket termination and 120 cm heavy-duty leadwire).
(§4) The exemplary EEG data collection technique for the NHP subjects included the following preparation steps. […]
(§5) The exemplary EEG data was analyzed using Analyzer 2.0 software. […]

[2] = tested on: rhesus macaques (Macaca mulatta); assay: P300 (P3) ERP in macaque EEG, auditory oddball paradigm, under ketamine, saline and 5 h post-ketamine; type: in vivo
Text: as §1, §2, §3, §4, §5

[3] = ketamine, saline, 5 h post-ketamine

SMILES: CNC1(c2ccccc2Cl)CCCCC1=O (stereo not drawn) [ketamine]
- Effect of ketamine on MMN 5 h after infusion ([1]; 5 h-post ketamine vs. saline F(1,290)=0.20, p=0.652, ketamine vs. 5 h-post ketamine F(1,403)=7.97, p=0.005): no longer significant; also recorded: full recovery
- MMN amplitude, ketamine vs. saline ([1]; acute subanesthetic ketamine infusion 1 mg/Kg, vs. vehicle saline, F(1,290)=4.47, p=0.035, Cz electrode): significant reduction
- MMN latency differences across conditions [1, 3]: No significant latency differences
- Effect of ketamine on P300 (P3) 5 h after infusion ([2]; 5 h-post ketamine vs. saline F(1,301)=0.06, p=0.803, ketamine vs. 5 h-post ketamine F(1,411)=44.34, p=0.000): no longer significant; also recorded: full recovery
- P300 amplitude, ketamine vs. saline ([2]; acute subanesthetic ketamine infusion 1 mg/Kg, vs. vehicle saline, F(1,301)=27.73, p=0.000, Cz electrode): significant reduction
- P300 latency differences across conditions [2, 3]: No significant latency differences
